Results published in patent publication US20140364454A1, “METAL-CHELATING COMPOUNDS HAVING AT LEAST ONE POLYAMINO CHAIN” (UNIVERSITE DE RENNES I, priority 2011, published 2014).

Columns and labels:
HepG2 cells [1] = assay: Anti-proliferative effect on HepG2 cells (nuclei count or SDH activity); format: cell-based, human; conditions: for IC50: Homo sapiens, HepG2, absence of exogenous iron, read-out: IC50 associated with the cytostatic effect; for IC50 / % of HepG2 cells concerned by the anti-proliferative effect: 72 h; for % of HepG2 cells concerned by the anti-proliferative effect: absence of exogenous iron
From the text: The majority of the Quilamines, like ICL670, show biphase dose-effect curves in the absence of exogenous iron, with an anti-proliferative constituent for concentration values of 1 to 10 micromoles per liter and a cytotoxic constituent associated with a release of LDH for concentration values of over 10 micromoles per liter. The percentage of HepG2 cells concerned by the anti-proliferative effect and the values of IC50 associated with this cytostatic effect in the absence of exogenous iron were listed in the table 4 below.
The implication of PTS in the cytostatic and cytotoxic action of Quilamines was analyzed in proliferating HepG2 hepatocyte tumor cells after activation of PTS or competitive inhibition of PTS by spermidine, a polyamine naturally present in the organism and most efficaciously captured by the PTS. The conditions of treatment by Quilamines are identical to those described in paragraph III-1.
Inhibiting ornithine decarboxylase (ODC), the key enzyme in the biosynthesis of polyamines, causes a depletion of intra-cell polyamines and an activation of PTS which enables the deficiency to be met. This activation of PTS is done by means of the ODC inhibitor, alpha-difluoromethyl ornithine (DFMO).
The competitive inhibition of PTS by spermidine is prompted by the co-treatment of the cells by the Quilamines in the presence of spermidine, in a concentration of 50 micromoles per liter.

[2] = Continuous variation method, absorption of the Quilamine-Fe(III) complex at 580 nm; format: physicochemical; conditions: physiological pH
Protocol: At physiological pH, the Quilamine forms a Quilamine-Fe(III) complex preferably having a ligand:metal stoichiometry of 2/1. The ligand:metal stoichiometry can for example be determined by the continuous variation method, using the characteristic transition in the absorption spectrum of the Quilamine-Fe(III) complex at 580 nm, for chelator and iron concentrations ranging from 0 to 500 micromoles per liter.
The interaction of Quilamine HQ1-44 with iron (Fe3+) was assessed by means of a characteristic transition at 580 nm, observed in the absorption spectrum of the complex of Quilamine HQ1-44 with Fe(III). The continuous variation method consist in measuring the quantity of complex formed between Quilamine and Fe(III) deduced from the value of absorption at 580 nm, in bringing about a variation of the ratio of the concentrations in Quilamine/Quilamine+Fe(III) for a total concentration of Quilamine+Fe(III) that is constant and equal to 100 micromoles per liter (Tris/HCl buffer 100 millimoles per liter, pH 7.4).

[3] = tested on: ODC, OAZ1, SAMDC and PAO genes; assay: RT-qPCR of polyamine metabolism genes in Caco-2 cells; format: cell-based, human; conditions: proliferating Caco-2, 10 micromoles per liter, 72 hours
Protocol: After treatment for 72 hours of the Caco-2 cells, in proliferative phase by Quilamine HQ1-44 and ICL670 in a concentration of 10 micromoles per liter, an analysis is carried by RT-qPCR of the expression of the main genes for regulating the metabolism of polyamines, such as ornithine decarboxylase (ODC), antizyme (OAZ1), S-adenosyl methionine decarboxylase (SAMDC) and polyamine oxydase (PAO).

Caco-2 cells = assay: LDH release of Caco-2 cells; format: cell-based, human; conditions: for influence of exogenous iron on the cytotoxic effect: Caco-2, after addition of exogenous iron; for % LDH/control 10 μM: Caco-2 J4, 10 μM; for % LDH/control 100 μM: Caco-2 J4, 100 μM
Protocol: The action of Quilamines on the cell viability was analyzed on enterocyte cells of the Caco-2 tumor cell line derived from human colon carcinoma and compared with the action of ICL670 in the presence or absence of exogenous iron, after activation (DFMO) or competitive inhibition by spermidine, of the PTS. The operating conditions used are identical to those used for CHO/CHO-MG and HepG2 cells.
As in the case of the other cell lines in proliferative phase presented here above, the dose-effect curves of the action of the Quilamines on the number of viable cells (number of nuclei) are biphase curves with a cytostatic constituent for concentration values of below 30 micromoles per liter and a cytotoxic constituent with release of LDH for concentration values above 30 micromoles per liter. Only this second cytotoxic constituent is observed when the cells of the Caco-2 cell line are treated after confluence (stopping of the proliferation).

CHO cells = assay: Cytotoxic effect on CHO cells, LDH release in supernatants; conditions: hamster, 72 h
Protocol: The in vitro efficacy of different Quilamines was tested on a wild cell line (CHO) of hamster ovarian cells having PTS and a mutant cell line CHO-MG without PTS. The two cell types CHO and CHO-MG were treated, 24 hours after being seeded in 96-well microplates, by concentrations of different Quilamines ranging from 0.1 to 400 micromoles per liter. The cytostatic (anti-proliferative) effects and cytotoxic effects of Quilamine after 72 hours' treatment of the cells were assessed respectively by counting cell nuclei after DNA marking by the Hoechst 33342 fluorescent intercalant dye and by analysis of membrane damage detected by the dosing of the lactate dehydrogenase activity (LHD) in the supernatants.
A comparison was made of the cytostatic or anti-proliferative action and the cytotoxic action for 72 h of treatment by Quilamine HQ1-44 and 8-hydroxyquinoline and ICL670, on the CHO cell lines in the presence and without the presence of exogenous iron, in the form of Fe(III) citrate in a concentration of 20 micromoles per liter. The results obtained are shown in FIG. 4, FIG. 4A relating to the results on cell viability and FIG. 4B relating to the results on cell toxicity.

HepG2 cells [4] = assay: Anti-proliferative effect on HepG2 cells (nuclei count or SDH activity); format: cell-based, human; conditions: HepG2, presence of exogenous iron

Row | IC50 (HepG2 cells [1]) [µM] | ligand/iron stoichiometry of the complex with Fe(III) [2] | % LDH/control 10 μM (Caco-2 cells) [%] | % LDH/control 100 μM (Caco-2 cells) [%] | SMILES | influence of competitive inhibition of PTS by spermidine on the cytostatic effects (HepG2 cells [1]; HepG2, spermidine 50 micromoles per liter, Quilamine below 10 micromoles per liter) | % of HepG2 cells concerned by the anti-proliferative effect (HepG2 cells [1]) [%] | expression of the genes of polyamine metabolism (ODC, OAZ1, SAMDC, PAO) [3] | influence of exogenous iron on the cytotoxic effect (Caco-2 cells) | chelator concentration giving cytotoxic effect with release of LDH (CHO cells) | influence of exogenous iron on the cytostatic effect (HepG2 cells [4])
1 | 2.75 | 2/1 | 118 | 287 | NCCCCNCCCCNCc1ccc2cccc(O)c2n1 [HQ1-44, 2-[4-(4-aminobutyl)aminobutyl]aminomethylquinolin-8-ol] | inhibition | 30 | no effect | partially inhibited |  | 
2 | 3.85 |  | 117 | 130 | O=C(O)c1ccc(-n2nc(-c3ccccc3O)nc2-c2ccccc2O)cc1 [ICL670, reference compound] |  | 72.5 | no effect | inhibition | over 10 micromoles per liter | inhibition
